In brackets after ≈: the same amount, converted by molar mass.

The text below walks through data of US4031235A, “Insecticidal substituted acetate compounds” (Sumitomo Chemical Company, Limited, priority 1972, dated 1977).

For series [1], the system named is Larvae of Mosquito (Culex pipiens). Nature of the series: Insecticidal activity on larvae of mosquito (Experimental Example 2). Type of series: in vivo. The following applies: 24 h, read-out: LC50 (50% lethal concentration). Here is the method: An emulsifiable concentrate was prepared by blending each of the compounds (1) to (300) of the present invention, xylol and Sorpol SM-200 (trade name; manufactured by Toho Chemical Co., Ltd.) in a proportion of 25%, 50% and 25% (by weight), respectively. 20 to 25 day-old rice plants after seeding were grown in pots and sprayed with each 300-fold dilute solution of the emulsifiable concentrates thus prepared and a 300-fold dilute solution of carbaryl 30% wettable powder diluted with water as a control commercial agent in an amount of 10 ml/pot in each case and then the pots were covered by a cylindrical metal net. 15 small brown planthoppers (Delphacodes striatella Fallen) per group were released in each of the pots treated with carbaryl wettable powder, and compound (1) to (21) and (102) to (110), while 15 green rice leafhopper (Nephotettix bipuntatus cincticeps Uhler) per group were released in each of the pots treated with the carbaryl wettable powder and compounds (22) to (101) and (111) to (300).
Of the emulsifiable concentrates prepared in Experimental Example 1, each of those prepared from the compounds of Table 1 below was diluted with water to each of test concentrations and a 200 ml portion thereof was added to a 300 ml volume beaker. 30 larvae of mosquito per group were released in each of the beaker and allowed to stand for 1 day. Survival was observed and a LC50 (50% lethal concentration) was determined by calculating a percent killing in each case. As a control, lindane emulsifiable concentrate was used.

The test system of series [2] is adult mosquitoes (Culex pipiens). As to the kind of experiment: Knock-down of adult mosquitoes by 0.2% oil preparation (Experimental Example 4). Type of series: in vivo. The following applies: 0.2% oil preparation, 0.7 ml, 1.5 Kg/cm^2, (70 Cm)^3 glass box, read-out: mosquitoes knocked down. On the procedure:
(§1) 0.2% oil preparation was prepared from each of the compounds (1), (2), (8), (14), (22), (25), (26), (27), (51), (62), (73), (82), (86), (88), to (90), (92), (94), (96), (111), (119), (121), (165), (175), (180), (184), (185), (195), (200), (201), and (208) and allethrin as a control using deodorized kerosene.

Series [3] relates to oriental house flies. As to the kind of experiment: Activity on knock-down against oriental house flies (Experimental Example 5). The following applies: 0.2% oil preparation, 0.7 ml, 1.5 Kg/cm^2, (70 cm)^3 glass box. Type of series: in vivo. On the procedure: as §1
20 oriental house flies per group were released in a (70 cm)^3 volume glass box and sprayed with each of the oil preparations prepared in Experimental Example 4 from the compounds of Table 3 below and allethrin in an amount of 0.7 ml under a pressure of 1.5 Kg/cm^2.

Another series can be described thus: Oral toxicity to mice. The following applies: mouse, in vivo.
Series [4] relates to oriental house flies. Nature of the series: Potentiation of insecticidal activity by addition of piperonyl butoxide, topical application (Experimental Example 6). The class given is in vivo. The following applies: piperonyl butoxide 5 times active ingredient; acetone solution on thoracic dorsal plate. Here is the method:
To each of the compounds (22), (51), (62), (63), (82), (86), (125), (150), (160), (176), (177), (178), (184), (185), (191), (195), (200), (201), (204), (208), (210), (212) and (226) was added piperonyl butoxide in an amount of 5 times that of the active ingredient, respectively to prepare an acetone solution having a given concentration. Each of the thus prepared acetone solutions was applied onto a thoracic dosal plate of oriental house flies using a microshringe to observe a synergestic effect on insecticidal activity by piperonyl butoxide.

Turning to `CCC(C(=O)OCc1coc(Cc2ccccc2)c1)c1ccccc1` (stereo not drawn) [compound 1, 5'-Benzyl-3'-furylmethyl-α-ethyl-phenylacetate], the LC50 in series [1] was determined as 1.5 ng/mL (≈ 4.49 nM). For the same compound, the pest or weed control at 0.2 % in series [2] was above 80%. Besides, the “KT50 (50% knock-down time)” value in the series on oriental house flies [3] is 167 s. Besides, the LD50 (in general, the dose expected to kill half of the subjects tested) in “Oral toxicity to mice” was above 1000 mg/kg.

Regarding `CCC(C(=O)OCc1cccc(Oc2ccccc2)c1)c1ccccc1` (stereo not drawn) [compound 2, 3'-Phenoxybenzyl-α-ethylphenylacetate], the LC50 in series [1] was determined as 3.4 ng/mL (≈ 9.81 nM). For the same compound, the pest or weed control at 0.2 % in series [2] was above 80%. In the series “Oral toxicity to mice”, this compound returned an LD50 above 1000 mg/kg.

`C#CCc1cc(C(C#C)OC(=O)C(CC)c2ccccc2)co1` (stereo not drawn) [compound 8, 5'-Propargyl-α '-ethynyl-3'-furylmethyl-α-ethyl-phenylacetate]: the pest or weed control at 0.2 % in series [2] is above 80%. Also, the “KT50 (50% knock-down time)” value with oriental house flies [3] was 128 s. This compound also yielded an LD50 in the series “Oral toxicity to mice” of 750 mg/kg.

As for `COc1ccc(C(C(=O)OCc2coc(Cc3ccccc3)c2)C(C)C)cc1` (stereo not drawn) [compound 22, 5'-Benzyl-3'-furylmethyl-α-isopropyl-4-methoxyphenylacetate], the pest or weed control at 0.2 % in series [2] is above 80%. The “KT50 (50% knock-down time)” value in the series with oriental house flies [3] worked out at 136 s. In addition, the “Potentiation magnification of insecticidal activity by the addition of piperonyl butoxide” value (“Potentiation magnification” for short) with oriental house flies [4] came out at 5.0. This compound came in with an LD50 in the series “Oral toxicity to mice” of 900 mg/kg.

`C#CCc1ccc(C(C#C)OC(=O)C(c2ccc(OC)cc2)C(C)C)o1` (stereo not drawn) [compound 51, 5'-Propargyl-2'-(α'-ethynyl)-furfuryl-α-isopropyl-4-methoxyphenylacetate]: in series [2], the pest or weed control at 0.2 % was above 80%. The “KT50 (50% knock-down time)” value with oriental house flies [3] came to 104 s. Moreover, the “Potentiation magnification” value with oriental house flies [4] is recorded as 7.2.

On to `COc1ccc(C(C(=O)OCc2cccc(Oc3ccccc3)c2)C(C)C)cc1` (stereo not drawn) [compound 62, 3'-Phenoxybenzyl-α-isopropyl-4-methoxyphenylacetate], for which, in series [2], the pest or weed control at 0.2 % is above 80%. The “KT50 (50% knock-down time)” value in the series with oriental house flies [3] was 154 s. In the series on oriental house flies [4], the “Potentiation magnification” value was 5.3. Moreover, the LD50 in the series “Oral toxicity to mice” was above 1000 mg/kg.

For `COc1ccc(C(C(=O)OCc2ccc(Oc3ccccc3)o2)C(C)C)cc1` (stereo not drawn) [compound 63, 5'-Phenoxyfurfuryl-α-isopropyl-4-methoxyphenylacetate], in the series on oriental house flies [3], the “KT50 (50% knock-down time)” value came out at 140 s. Besides, the “Potentiation magnification” value in the series with oriental house flies [4] is reported as 4.8. Further, the LD50 in “Oral toxicity to mice” is above 1000 mg/kg.

Compound `CCC(C(=O)OCc1cccc(Oc2ccccc2)c1)c1ccc(OC)cc1` (stereo not drawn) [compound 80, 3'-Phenoxybenzyl-α-ethyl-4-methoxyphenylacetate] registered an LD50 in the series “Oral toxicity to mice” above 2000 mg/kg.

As for `C=C(C)C(C(=O)OCc1cccc(Oc2ccccc2)c1)c1ccc(OC)cc1` (stereo not drawn) [compound 82, 3'-Phenoxybenzyl-α-isopropenyl-4-methoxyphenylacetate], the pest or weed control at 0.2 % in series [2] is above 80%. In the series on oriental house flies [3], the “KT50 (50% knock-down time)” value is 132 s. The “Potentiation magnification” value in the series on oriental house flies [4] is on record as 6.7. The same compound registered an LD50 in “Oral toxicity to mice” above 1000 mg/kg.

For the compound `COc1ccc(C(C(=O)OCc2cc3c(o2)CCCC3)C(C)C)cc1` (stereo not drawn) [compound 88, 4',5'-Tetramethylenefurfuryl-α-isopropyl-4-methoxyphenylacetate], the pest or weed control at 0.2 % in series [2] was above 80%. In addition, the “KT50 (50% knock-down time)” value in the series with oriental house flies [3] amounted to 147 s.

For `C=C(C)C(C(=O)OCc1cccc(Oc2ccccc2)c1)c1ccc(OC)cc1C` (stereo not drawn) [compound 96, 3'-Phenoxybenzyl-α-isopropenyl-2-methyl-4-methoxyphenylacetate], in series [2], the pest or weed control at 0.2 % was above 80%. In the series with oriental house flies [3], the “KT50 (50% knock-down time)” value was 92 s.

`Cc1ccc(C(C(=O)OCc2cccc(Oc3ccccc3)c2)C(C)C)cc1` (stereo not drawn) [compound 108, 3'-Phenoxybenzyl-α-isopropyl-4-methylphenylacetate] returned an LD50 in “Oral toxicity to mice” above 1000 mg/kg.

For `C=C(C)C(C(=O)OCc1cccc(Oc2ccccc2)c1)c1ccc(Br)cc1` (stereo not drawn) [compound 111, 3'-Phenoxybenzyl-α-isopropenyl-4-bromophenylacetate], the LC50 in series [1] was found to be 2.5 ng/mL (≈ 5.72 nM). Moreover, the pest or weed control at 0.2 % in series [2] was above 80%. The “KT50 (50% knock-down time)” value in the series on oriental house flies [3] was 138 s.

Turning to `C=C(C)C(C(=O)OCc1cccc(Oc2ccccc2)c1)c1ccc(F)cc1` (stereo not drawn) [compound 121, 3'-Phenoxybenzyl-α-isopropenyl-4-fluorophenylacetate], the LC50 in series [1] amounted to 3.7 ng/mL (≈ 9.83 nM). Further, the pest or weed control at 0.2 % in series [2] is above 80%. Moreover, the “KT50 (50% knock-down time)” value in the series with oriental house flies [3] came to 130 s.

With `C=C(C)C(C(=O)OCc1cccc(Oc2ccccc2)c1)c1ccc(C)cc1` (stereo not drawn) [compound 125, 3'-Phenoxybenzyl-α -isopropenyl-4-methylphenylacetate], in series [1], the LC50 was determined as 3.2 ng/mL (≈ 8.59 nM). Moreover, the “Potentiation magnification” value in the series on oriental house flies [4] stood at 6.0. In “Oral toxicity to mice”, this compound registered an LD50 of 1000 mg/kg.

Compound `C#CCc1cc(C)c(COC(=O)C(c2ccc(Cl)cc2)C(C)C)c(C)c1` (centres unmarked) [compound 129] returned an LD50 in “Oral toxicity to mice” above 1000 mg/kg.

For the compound `CC(C)C(C(=O)OCN1C(=O)c2ccccc2C1=O)c1ccc(Cl)cc1` (centres unmarked) [compound 130], the LD50 in the series “Oral toxicity to mice” was above 1000 mg/kg.

With `Cc1ccc(C(C(=O)OCc2ccc(Cc3ccco3)s2)C(C)C)cc1` (centres unmarked) [compound 145], the LC50 in series [1] stood at 3.9 ng/mL (≈ 10.6 nM). In the series “Oral toxicity to mice”, this compound displayed an LD50 above 1000 mg/kg.

Take `Cc1ccc(C(C(=O)OCc2cc3c(s2)CCCC3)C(C)C)cc1` (centres unmarked) [compound 150]: in the series with oriental house flies [4], the “Potentiation magnification” value came out at 4.2. Also, the LD50 in “Oral toxicity to mice” was above 1000 mg/kg.

For the compound `CC(C)C(C(=O)OC(C#N)c1cccc(Oc2ccccc2)c1)c1ccc(F)cc1` (centres unmarked) [compound 165], the LC50 in series [1] came out at 1.2 ng/mL (≈ 2.97 nM). The pest or weed control at 0.2 % in series [2] was above 80%. For the same compound, the “KT50 (50% knock-down time)” value in the series with oriental house flies [3] turned out to be 145 s.

For `CCC(C(=O)OCc1coc(Cc2ccco2)c1)c1ccc(Br)cc1` (centres unmarked) [compound 175], the pest or weed control at 0.2 % in series [2] was above 80%. In addition, the “KT50 (50% knock-down time)” value in the series with oriental house flies [3] was 152 s.

Turning to `CCC(C(=O)OCc1cccc(Oc2ccccc2)c1)c1ccc(C)cc1` (centres unmarked) [compound 176], in the series with oriental house flies [4], the “Potentiation magnification” value was found to be 5.2. Besides, the LD50 in the series “Oral toxicity to mice” is above 1000 mg/kg.

For the compound `CCC(C(=O)OCc1coc(Oc2ccccc2)c1)c1ccc(Cl)cc1` (centres unmarked) [compound 180], the LC50 in series [1] was 7.2 ng/mL (≈ 19.4 nM). For the same compound, the pest or weed control at 0.2 % in series [2] is above 80%. Moreover, in the series on oriental house flies [3], the “KT50 (50% knock-down time)” value was 157 s.

As to `CCC(C(=O)OCc1coc(Cc2ccccc2)c1)c1ccc(F)cc1` (centres unmarked) [compound 185], the pest or weed control at 0.2 % in series [2] is above 80%. Also, the “KT50 (50% knock-down time)” value in the series on oriental house flies [3] was determined as 137 s. Also, the “Potentiation magnification” value in the series on oriental house flies [4] was 5.0.

On to `Cc1ccc(C(C(=O)OCc2coc(Oc3ccccc3)c2)C(C)C)cc1` (centres unmarked) [compound 195], for which the pest or weed control at 0.2 % in series [2] was above 80%. Besides, the “KT50 (50% knock-down time)” value in the series on oriental house flies [3] came out at 140 s. Besides, the “Potentiation magnification” value in the series on oriental house flies [4] was determined as 5.7.

`C#CCc1ccc(C(C#C)OC(=O)C(c2ccc(C)cc2)C(C)C)o1` (centres unmarked) [compound 200]: the pest or weed control at 0.2 % in series [2] was above 80%. The “KT50 (50% knock-down time)” value in the series with oriental house flies [3] stood at 114 s. Besides, in the series with oriental house flies [4], the “Potentiation magnification” value amounted to 7.5.

Turning to `C#CCc1ccc(C(C#C)OC(=O)C(c2ccc(Cl)cc2)C(C)C)o1` (centres unmarked) [compound 201], the pest or weed control at 0.2 % in series [2] is above 80%. The “KT50 (50% knock-down time)” value in the series with oriental house flies [3] amounted to 105 s. Besides, the “Potentiation magnification” value with oriental house flies [4] was found to be 7.0.

With `CC(C)C(C(=O)OCc1cccc(Oc2ccccc2)c1)c1ccc(Cl)cc1` (centres unmarked) [compound 206], in series [1], the LC50 was determined as 3.2 ng/mL (≈ 8.1 nM). In addition, the “Potentiation magnification” value in the series on oriental house flies [4] was 5.1. In “Oral toxicity to mice”, the LD50 was above 1000 mg/kg.

Regarding `CC(C)C(C(=O)OCc1coc(Cc2ccccc2)c1)c1ccc(F)cc1` (centres unmarked) [compound 208], the pest or weed control at 0.2 % in series [2] is above 80%. Further, the “KT50 (50% knock-down time)” value with oriental house flies [3] came out at 150 s. Moreover, in the series on oriental house flies [4], the “Potentiation magnification” value worked out at 5.2.
